From ChEMBL document CHEMBL2029231, “A novel series of pyrazolylpiperidine N-type calcium channel blockers” (Bioorg Med Chem Lett, 2012)
pIC50: −log10 of the molar value.

Legend:
[1] = Inhibition of N-type calcium channel alpha1B/alpha2delta-1/beta1b assessed as inhibition of KCl-induced calcium mobilization by FDSS
[2] = Inhibition of N-type calcium channel alpha1B/alpha2delta-1/beta1b by patch clamp analysis
[3] = (§1) Metabolic stability in rat liver microsomes assessed as compound remaining after 10 mins; assay type: ADME, Microsome; conditions: liver microsomes, read-out: Stability
[4] = (§2) Metabolic stability in human liver microsomes assessed as compound remaining after 10 mins; assay type: ADME, Microsome; conditions: liver microsomes, read-out: Stability
Liver microsomes [5] = experiment: as §1; assay type: ADME, Microsome; conditions: microsomes, 10 min
Liver microsomes [6] = experiment: as §2; assay type: ADME, Microsome; conditions: microsomes, 10 min
Rattus norvegicus [7] = species on record: Rattus norvegicus; experiment: Ex vivo inhibition of rat N-type calcium channel assessed as inhibition of KCl-stimulated CGRP release at 1 uM by ELISA in presence of conotoxin GVIA; assay type: functional
[8] = Inhibition of L-type calcium channel at 5 uM
[9] = Half life in Sprague-Dawley rat at 2 mg/kg, iv; assay type: ADME, organism-based; design: dose 2 mg/kg, route intravenous; conditions: in vivo
[10] = Clearance in Sprague-Dawley rat at 2 mg/kg, iv; assay type: ADME, organism-based; design: dose 2 mg/kg, route intravenous; conditions: in vivo
[11] = Tmax in Sprague-Dawley rat at 10 mg/kg, po; assay type: ADME, organism-based; design: dose 10 mg/kg, route oral; conditions: in vivo
[12] = Cmax in Sprague-Dawley rat at 10 mg/kg, po; assay type: ADME, organism-based; design: dose 10 mg/kg, route oral; conditions: in vivo
[13] = Oral bioavailability in Sprague-Dawley rat at 10 mg/kg; assay type: ADME, organism-based; conditions: in vivo
Rattus norvegicus [14] = experiment: Antiinflammatory activity in ip dosed Sprague-Dawley rat assessed as reversal of carrageenan-induced thermal hypersensitivity administered 1 hr before carrageenan challenge; assay type: functional, organism-based
Rattus norvegicus [15] = experiment: Antiinflammatory activity in Sprague-Dawley rat assessed as reversal of carrageenan-induced thermal hypersensitivity at 30 mg/kg, ip administered 1 hr before carrageenan challenge relative to control; assay type: functional; conditions: route intraperitoneal
Rattus norvegicus [16] = experiment: Antiallodynic activity in Sprague-Dawley rat chronic constriction injury-induced neuropathic pain model assessed as attenuation of CCl-induced cold allodynia at 30 mg/kg, ip measured at 1 to 4 hrs; assay type: functional; conditions: route intraperitoneal
Plasma = experiment: Plasma concentration in Sprague-Dawley rat at 30 mg/kg, ip; assay type: ADME, organism-based; design: dose 30 mg/kg, route intraperitoneal; conditions: in vivo

Q: With `CS(=O)(=O)N1CCC(c2cc(-c3ccc(Cl)cc3)n(-c3ccccc3N)n2)CC1` as the compound, how does the pIC50 [1] read?
A: The pIC50 was < 6.52.

Q: With `COc1ccccc1-n1nc(C2CCN(S(C)(=O)=O)CC2)cc1-c1ccc(Cl)c(C(F)(F)F)c1` as the compound, how does the pIC50 [1] read?
A: The pIC50 was 7.00.

Q: With `CN(C)c1ccccc1-n1nc(C2CCN(S(C)(=O)=O)CC2)cc1-c1ccc(Cl)cc1` as the compound, how does the pIC50 [1] read?
A: Its pIC50 is 7.89.

Q: With `COc1ccccc1-n1nc(C2CCN(S(C)(=O)=O)CC2)cc1-c1ccc(N(C)C)cc1` as the compound, how does the pIC50 [1] read?
A: The pIC50 was 7.21.

Q: With `COc1ccccc1-n1nc(C2CCN(S(C)(=O)=O)CC2)cc1-c1ccc(C(C)(C)C)cc1` as the compound, how does the pIC50 [1] read?
A: The pIC50 was 7.54.

Q: With `COc1ccccc1-n1nc(C2CCN(S(C)(=O)=O)CC2)cc1-c1cc2ccccc2o1` as the compound, how does the pIC50 [1] read?
A: The pIC50 was 6.40.

Q: With `COc1ccccc1-n1nc(C2CCN(S(C)(=O)=O)CC2)cc1C1CCC(C)(C)CC1` as the compound, how does the pIC50 [1] read?
A: The pIC50 was 6.85.

Q: With `COc1ccccc1-n1nc(C2CCN(S(C)(=O)=O)CC2)cc1-c1ccc(OC(C)C)cc1` as the compound, how does the pIC50 [1] read?
A: Its pIC50 is 6.60.

Q: Which results are given for `COc1ccccc1-n1nc(C2CCN(S(=O)(=O)C(C)C)CC2)cc1-c1ccc(Cl)cc1`?
A: pIC50 [1]: 7.74; pIC50 [2]: 7.10; remaining at 10 min [3]: 19%; remaining at 10 min [4]: 100%

Q: With `COc1ccccc1-n1nc(CCCO)cc1-c1ccc(Cl)cc1` as the compound, how does the pIC50 [1] read?
A: The pIC50 was 7.01.

Q: And the remaining at 10 min [3]?
A: The remaining at 10 min was 14%.

Q: With `COc1ccccc1-n1nc(C2CCN(S(C)(=O)=O)CC2)cc1C1=CCC(C)(C)CC1` as the compound, how does the pIC50 [1] read?
A: Its pIC50 is 7.31.

Q: With `COc1ccccc1-n1nc(C2CCN(S(C)(=O)=O)CC2)cc1-c1ccc2c(ccn2C)c1` as the compound, how does the pIC50 [1] read?
A: Its pIC50 is 7.17.

Q: With `COc1ccccc1-n1nc(C2CCN(S(C)(=O)=O)CC2)cc1-c1ccc(Cl)s1` as the compound, how does the pIC50 [1] read?
A: The pIC50 was 7.03.

Q: With `CC(C)Oc1ccccc1-n1nc(C2CCN(S(C)(=O)=O)CC2)cc1-c1ccc(Cl)cc1` as the compound, how does the pIC50 [1] read?
A: Its pIC50 is 8.30.

Q: What about the remaining at 10 min [3] of the same compound?
A: The remaining at 10 min was 5%.

Q: What about the remaining at 10 min [4] of the same compound?
A: The remaining at 10 min was 18%.

Q: With `COc1ccccc1-n1nc(C2CCN(S(C)(=O)=O)CC2)cc1-c1ccc(Cl)cc1Cl` as the compound, how does the pIC50 [1] read?
A: The pIC50 was 7.82.

Q: With `COc1ccccc1-n1nc(C2CCN(S(=O)(=O)C(F)(F)F)CC2)cc1-c1ccc(Cl)cc1` as the compound, how does the pIC50 [1] read?
A: The pIC50 was 7.80.

Q: What about the remaining at 10 min [3] of the same compound?
A: Its remaining at 10 min is 100%.

Q: And the remaining at 10 min [4]?
A: Its remaining at 10 min is 98%.

Q: Which results are given for `COc1ccccc1-n1nc(C2CCN(S(=O)(=O)CC(F)(F)F)CC2)cc1-c1ccc(Cl)cc1`?
A: pIC50 [1]: 7.59; remaining at 10 min [3]: 33%; remaining at 10 min [4]: 100%

Q: With `COc1ccccc1-n1nc(C2CCN(S(=O)(=O)N(C)C)CC2)cc1-c1ccc(Cl)cc1` as the compound, how does the pIC50 [1] read?
A: Its pIC50 is 7.96.

Q: And the Stability (Liver microsomes [5])?
A: The Stability was “Unstable”.

Q: What about the Stability (Liver microsomes [6]) of the same compound?
A: The Stability was “Unstable”.

Q: With `COc1ccccc1-n1nc(C2CCN(S(C)(=O)=O)CC2)cc1-c1ccc(C#N)cc1` as the compound, how does the pIC50 [1] read?
A: The pIC50 was 6.77.

Q: With `COc1ccccc1-n1nc(C2CCN(S(C)(=O)=O)CC2)cc1-c1ccc(F)cc1` as the compound, how does the pIC50 [1] read?
A: Its pIC50 is 7.01.

Q: With `COc1ccccc1-n1nc(C2CCN(C(C)=O)CC2)cc1-c1ccc(Cl)cc1` as the compound, how does the pIC50 [1] read?
A: Its pIC50 is 7.77.

Q: What about the remaining at 10 min [3] of the same compound?
A: The remaining at 10 min was 7%.

Q: And the remaining at 10 min [4]?
A: Its remaining at 10 min is 59%.

Q: With `COc1ccccc1-n1nc(C2CCN(S(C)(=O)=O)CC2)cc1-c1ccc(Cl)c(C#N)c1` as the compound, how does the pIC50 [1] read?
A: The pIC50 was 7.02.

Q: With `OCCCc1cc(-c2ccc(Cl)cc2)n(-c2ccccc2)n1` as the compound, how does the pIC50 [1] read?
A: The pIC50 was 5.92.

Q: With `COc1c(Cl)cccc1-n1nc(C2CCN(S(C)(=O)=O)CC2)cc1-c1ccc(Cl)cc1` as the compound, how does the pIC50 [1] read?
A: The pIC50 was 6.77.

Q: With `CNc1ccc(-c2cc(C3CCN(S(C)(=O)=O)CC3)nn2-c2ccccc2OC)cc1` as the compound, how does the pIC50 [1] read?
A: The pIC50 was 6.70.

Q: With `CCS(=O)(=O)N1CCC(c2cc(-c3ccc(Cl)cc3)n(-c3ccccc3OC)n2)CC1` as the compound, how does the pIC50 [1] read?
A: The pIC50 was 7.46.

Q: And the remaining at 10 min [3]?
A: Its remaining at 10 min is 22%.

Q: What about the Stability (Liver microsomes [6]) of the same compound?
A: The Stability was “Unstable”.

Q: What does the source list for `COc1ccccc1-n1nc(C2CCN(S(C)(=O)=O)CC2)cc1-c1ccc(Cl)cc1`?
A: pIC50 [1]: 7.57; pIC50 [2]: 6.70; inhibition (INH) (Rattus norvegicus [7]): 91%; inhibition [8]: 52%; half-life [9]: 1.5 h; clearance [10]: 26 mL/min/kg; Tmax [11]: 0.9 h; Cmax [12]: 1.5 µM; bioavailability [13]: 42.5%; Activity (Rattus norvegicus [14]): Dose-dependent effect; Activity (Rattus norvegicus [15]): 82%; inhibition in vivo at 30 mg/kg (Rattus norvegicus [16]): 41%; concentration (Plasma): 8.32 µM; remaining at 10 min [3]: 45%; remaining at 10 min [4]: 86%
